Reference: patent US9409900B2, “Compound for increasing kinase active and application thereof” (FUJIAN HAIXI PHARMACEUTICALS, INC., priority 2010, dated 2016)
pEC50: −log10 of the molar value.

Target: glucokinase (Homo sapiens (Human), UniProt P35557)
Assay: Glucokinase Activation Assay
Format: biochemical
Settings: 5 mM glucose, 100 nM glucokinase, G6PDH-coupled, absorbance at 340 nm, pH 7.1
Description: The final assay volume was 200 uL and the final buffer conditions used in this assay were as follows: 25 mM HEPES, 5 mM glucose, 1 mM ATP, 2 mM MgCl2, 1 mM NAD, 1 mM DTT, 8.5 U/mL G6PDH, 100 nM glucokinase, and 25 mM KCl. The buffer pH was 7.1. The mixture A was first made containing KCl, MgCl2, DTT and Glucose in HEPES buffer. The mixture B was made containing NAD and ATP. The test compound in DMSO solution, the mixture A, the mixture B and G6PDH were first mixed in a 96-well plate. Glucokinase was then added to initiate the reaction, and the absorbance at 340 nm was monitored every 5 mins. The activity of glucokinase was represented by the initial generation rate of glucose-6-phosphate, which was calculated by drawing the slope values from the absorbance changing curve at 340 nm vs. the time points.

Sequence of glucokinase (P35557 whole entry, species assumed): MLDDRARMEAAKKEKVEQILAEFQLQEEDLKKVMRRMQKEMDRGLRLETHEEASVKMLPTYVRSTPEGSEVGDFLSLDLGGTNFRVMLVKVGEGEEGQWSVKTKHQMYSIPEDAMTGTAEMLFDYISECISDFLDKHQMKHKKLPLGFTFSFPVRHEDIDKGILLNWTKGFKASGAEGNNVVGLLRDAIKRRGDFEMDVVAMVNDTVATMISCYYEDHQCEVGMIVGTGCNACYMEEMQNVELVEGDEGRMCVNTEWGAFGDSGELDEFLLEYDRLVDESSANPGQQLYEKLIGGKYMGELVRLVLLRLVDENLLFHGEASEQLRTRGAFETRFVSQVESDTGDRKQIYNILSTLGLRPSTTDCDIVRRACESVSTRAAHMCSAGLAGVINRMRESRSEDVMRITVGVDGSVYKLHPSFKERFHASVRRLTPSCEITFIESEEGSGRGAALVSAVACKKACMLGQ

Row | pEC50 | SMILES
1 | 5.70 | CS(=O)(=O)c1ccc(Oc2ccc(Nc3ccc(C(=O)O)cn3)cc2CN2CCCC2=O)cn1 [Example 6, 6-(4-(6-(methylsulfonyl)pyridin-3-yloxy)-3-((2-oxopyrrolidin-1-yl)methyl)phenylamino) nicotinic acid]
2 | 5.70 | Cc1cnc(Nc2ccc(Oc3ccc(S(C)(=O)=O)nc3)c(CN3CCCC3=O)c2)s1 [Example 13, 1-(2-(6-(methylsulfonyl)pyridin-3-yloxy)-5-(5-methylthiazol-2-ylamino)benzyl)pyrrolidin-2-one]
3 | 5.30 | CN(C)C(=O)c1ccc(Oc2ccc(Nc3ccccn3)cc2CN2CCCC2=O)cn1 [Example 65, N,N-dimethyl-5-(2-((2-oxopyrrolidin-1-yl)methyl)-4-(pyridin-2-ylamino)phenoxy)picolinamide]
4 | 5.82 | CN(C)C(=O)c1ccc(Oc2ccc(Nc3ccc(CCC(=O)O)cn3)cc2CN2CCCC2=O)cn1 [Example 78, 3-(6-(4-(6-(dimethylcarbamoyl)pyridin-3-yloxy)-3-((2-oxopyrrolidin-1-yl)methyl)phenylamino)pyridin-3-yl) propanoic acid]
